Where a SMILES comes first, the peptide text is derived from it. The star is where a group is joined. Cbz = O=C(OCc1ccccc1)*
Tests used:
[1] = system: p53, pJNK, p38MAPK, p44/42MAPK in 2008 cells; experiment: Western blotting of endogenous ubiquitinated proteins; format: cell-based, human; conditions: 24 h
Protocol: FIG. 16. Expression of endogenous ubiquitinated proteins is increased in MG132-treated CDDP-sensitive tumor cells but not in CDDP-resistant tumor cells. CDDP-resistant (2008/C*13 R) and sensitive (2008) ovarian tumor cells were plated in six-well plates. At 24 h after plating cells were treated with PBS or MG132. At 24 h after treatment cells were harvested, lysates prepared and subjected to western blotting. Primary antibodies used were anti-human p53, anti-human pJNK, antihuman-p38MAPK and anti-human p44/42MAPK antibody. […] Beta-actin was used as internal loading control.
FIG. 19. SiRNA-mediated inhibition of Beta-5 subunit expression of the 20S proteasome in CDDP-sensitive tumor cells results in increased endogenous protein expression. CDDP-sensitive (2008) ovarian tumor cells were plated in six-well plates. At 24 h after plating cells were treated with PBS, control SiRNA, or beta-5 specific SiRNAs (100 nM). At 48 h after treatment cells were harvested, lysates prepared and subjected to western blotting. Primary antibodies used were anti-human beta-5 antibody, anti-human p53 antibody and anti-human pJNK antibody. […] Beta-actin was used as internal loading control.
Expression of Endogenous Ubiquitinated Proteins is Increased in MG132-Treated CDDP-Sensitive Tumor Cells but not in CDDP-Resistant Tumor Cells. […]

[2] = system: MDA-7 protein in 2008/C*13 R cells; experiment: Western blotting of MDA-7 protein expression; format: cell-based, human; conditions: 48 h, vs Ad-mda7 alone
Protocol: FIG. 4. MDA-7 protein expression is increased in CDDP-Resistant Ovarian tumor cells in a time-dependent and dose-dependent manner. FIG. 4A, Ovarian tumor cells (2008 and 2008/C*13 R) seeded in six-well plates were treated with PBS, Ad-luc or Ad-mda7 (3000 vp/cell). Cells were harvested on day 1 and day 2 after treatment and analyzed for MDA-7 protein expression by western blotting. […] Beta-actin was used as an internal loading control. FIG. 4B, Ovarian tumor cells (2008 and 2008/C*13 R) seeded in six-well plates were treated with different doses of Ad-mda7 (1000, 3000, 5000 or 7500 vp/cell). Untreated cells served as control. Cells were harvested on day 2 after treatment and analyzed for MDA-7 protein expression by western blotting. […] Beta-actin was used as an internal loading control. […] However, MDA-7 protein was higher in the supernatant of Ad-mda7-treated 2008/C*13 R cells compared to Ad-mda7-treated 2008 cells.
FIG. 11. […]
MDA-7 Protein Expression is Increased in CDDP-Resistant Ovarian Tumor Cells in a Time-dependent and Dose-Dependent Manner. […] Cells were harvested on day 1 and day 2 after treatment and analyzed for MDA-7 protein expression by western blotting. […] Cells were harvested on day 2 after treatment and analyzed for MDA-7 protein expression by western blotting. […]

CC(C)C[C@@H](C=O)NC(=O)[C@H](CC(C)C)NC(=O)[C@H](CC(C)C)NC(=O)OCc1ccccc1 [MG132] (Cbz-Leu-Leu-Leu-aldehyde)
expression of p53, pJNK, p38MAPK, p44/42MAPK [1]: increased expression
MDA-7 protein expression with proteasome inhibitor [2]: significantly increased

— patent US20090004145A1, “COMPOSITIONS AND METHODS INVOLVING GENE THERAPY AND PROTEASOME MODULATION” (priority 2006, published 2009)
